Test results reported in ChEMBL document CHEMBL3885861, “Open TG-GATES”.

Species on record: Rattus norvegicus
Experiment: Open TG-GATES - Regimen: Single
Type: toxicity, organism-based, Sprague-Dawley
Design: regimen Single, gender Male, age 6 weeks
Settings: in vivo, po, 0 mg/kg, route gavage, dose level Control; for APTT / Bas / Eos / Fbg / Hb / Ht / Lym / MCHC / MCV / Mono / Neu / PT / Plat / RBC / Ret / WBC: tissue Blood; for KIDNEY_L / KIDNEY_R / KIDNEY_TOTAL: tissue Kidney; for LIVER: tissue Liver; for ALP / ALT / AST / BUN / CRE / DBIL / GLC / IP / K / LDH / Na / PL / RALB / TBIL / TC / TG / TP / gamma-GTP: tissue Plasma

C#C[C@]1(O)CC[C@H]2[C@@H]3CCC4=Cc5oncc5C[C@]4(C)[C@H]3CC[C@@]21C [DANAZOL]
TERMINAL_BW (3 h): 212.9 g | APTT (3 h): 23 s | Bas (3 h): 0% | Eos (3 h): 1% | Fbg (3 h): 292.6 mg/dL | Hb (3 h): 13.2 g/dL | Ht (3 h): 40% | Lym (3 h): 77.2% | MCHC (3 h): 33.1% | MCV (3 h): 62.5 fL | Mono (3 h): 2.4% | Neu (3 h): 19.6% | PT (3 h): 15.8 s | Plat (3 h): 111.7 x10_4/uL | RBC (3 h): 641.4 x10_4/ul | Ret (3 h): 7% | WBC (3 h): 76.3 x10_2/uL | KIDNEY_L (3 h): 0.9 g | KIDNEY_R (3 h): 0.9 g | KIDNEY_TOTAL (3 h): 1.9 g | LIVER (3 h): 10.1 g | ALP (3 h): 1527.4 IU/L | ALT (3 h): 41.8 IU/L | AST (3 h): 78.2 IU/L | BUN (3 h): 14.2 mg/dL | CRE (3 h): 0.1 mg/dL | DBIL (3 h): 0 mg/dL | GLC (3 h): 187.6 mg/dL | IP (3 h): 7.9 mg/dL | K (3 h): 4.1 meq/L | LDH (3 h): 204.4 IU/L | Na (3 h): 142.8 meq/L | PL (3 h): 131.8 mg/dL | RALB (3 h): 3 g/dL | TBIL (3 h): 0.01 mg/dL | TC (3 h): 76.8 mg/dL | TG (3 h): 70.8 mg/dL | TP (3 h): 5.5 g/dL | gamma-GTP (3 h): 2 IU/L | TERMINAL_BW (6 h): 212.9 g | APTT (6 h): 23.5 s | Bas (6 h): 0% | Eos (6 h): 1% | Fbg (6 h): 300.6 mg/dL | Hb (6 h): 13.1 g/dL | Ht (6 h): 39.8% | Lym (6 h): 81.2% | MCHC (6 h): 32.8% | MCV (6 h): 63 fL | Mono (6 h): 2.2% | Neu (6 h): 14.8% | PT (6 h): 16.1 s | Plat (6 h): 114.9 x10_4/uL | RBC (6 h): 632 x10_4/ul | Ret (6 h): 7.2% | WBC (6 h): 105 x10_2/uL | KIDNEY_L (6 h): 0.9 g | KIDNEY_R (6 h): 1 g | KIDNEY_TOTAL (6 h): 1.9 g | LIVER (6 h): 9.1 g | ALP (6 h): 1276.8 IU/L | ALT (6 h): 39.4 IU/L | AST (6 h): 73.4 IU/L | BUN (6 h): 9.2 mg/dL | CRE (6 h): 0.1 mg/dL | DBIL (6 h): 0 mg/dL | GLC (6 h): 182 mg/dL | IP (6 h): 9 mg/dL | K (6 h): 4.3 meq/L | LDH (6 h): 168.6 IU/L | Na (6 h): 141 meq/L | PL (6 h): 118.2 mg/dL | RALB (6 h): 3 g/dL | TBIL (6 h): 0.02 mg/dL | TC (6 h): 65.4 mg/dL | TG (6 h): 49.4 mg/dL | TP (6 h): 5.3 g/dL | gamma-GTP (6 h): 1.4 IU/L | TERMINAL_BW (9 h): 209.9 g | APTT (9 h): 22.7 s | Bas (9 h): 0% | Eos (9 h): 0.2% | Fbg (9 h): 295.4 mg/dL | Hb (9 h): 13.3 g/dL | Ht (9 h): 40.9% | Lym (9 h): 83% | MCHC (9 h): 32.5% | MCV (9 h): 64 fL | Mono (9 h): 2% | Neu (9 h): 13.6% | PT (9 h): 16.3 s | Plat (9 h): 114.3 x10_4/uL | RBC (9 h): 639.2 x10_4/ul | Ret (9 h): 7.6% | WBC (9 h): 87.3 x10_2/uL | KIDNEY_L (9 h): 1 g | KIDNEY_R (9 h): 1 g | KIDNEY_TOTAL (9 h): 2 g | LIVER (9 h): 9.1 g | ALP (9 h): 1266 IU/L | ALT (9 h): 33.2 IU/L | AST (9 h): 63.6 IU/L | BUN (9 h): 11.2 mg/dL | CRE (9 h): 0.1 mg/dL | DBIL (9 h): 0 mg/dL | GLC (9 h): 199.8 mg/dL | IP (9 h): 10.1 mg/dL | K (9 h): 4.2 meq/L | LDH (9 h): 144.2 IU/L | Na (9 h): 141.8 meq/L | PL (9 h): 124 mg/dL | RALB (9 h): 2.9 g/dL | TBIL (9 h): 0.016 mg/dL | TC (9 h): 69.8 mg/dL | TG (9 h): 54.8 mg/dL | TP (9 h): 5.4 g/dL | gamma-GTP (9 h): 1.2 IU/L | TERMINAL_BW (24 h): 231.9 g | APTT (24 h): 23.6 s | Bas (24 h): 0% | Eos (24 h): 0.8% | Fbg (24 h): 281 mg/dL | Hb (24 h): 13.3 g/dL | Ht (24 h): 40.2% | Lym (24 h): 81.4% | MCHC (24 h): 32.9% | MCV (24 h): 63.2 fL | Mono (24 h): 2.2% | Neu (24 h): 14.8% | PT (24 h): 15.7 s | Plat (24 h): 114.7 x10_4/uL | RBC (24 h): 637.4 x10_4/ul | Ret (24 h): 7.3% | WBC (24 h): 102.5 x10_2/uL | KIDNEY_L (24 h): 1 g | KIDNEY_R (24 h): 1 g | KIDNEY_TOTAL (24 h): 2.1 g | LIVER (24 h): 11.3 g | ALP (24 h): 1604 IU/L | ALT (24 h): 48.2 IU/L | AST (24 h): 74.8 IU/L | BUN (24 h): 18.6 mg/dL | CRE (24 h): 0.1 mg/dL | DBIL (24 h): 0 mg/dL | GLC (24 h): 197.8 mg/dL | IP (24 h): 7.8 mg/dL | K (24 h): 4.2 meq/L | LDH (24 h): 173.8 IU/L | Na (24 h): 142.2 meq/L | PL (24 h): 140 mg/dL | RALB (24 h): 3 g/dL | TBIL (24 h): 0.006 mg/dL | TC (24 h): 74.6 mg/dL | TG (24 h): 93 mg/dL | TP (24 h): 5.5 g/dL
